According to ChEMBL document CHEMBL4828725 (Eur J Med Chem, 2021):
pIC50: −log10 of the molar value.

What was measured:
[1] = Inhibition of snail beta-mannosidase using p-nitrophenyl glycoside as substrate assessed as release of p-nitrophenol measured by spectrometric assay; set-up: species or system Helix pomatia
Prunus dulcis = assay: Inhibition of almond beta-glucosidase using p-nitrophenyl glycoside as substrate assessed as release of p-nitrophenol at 1000 uM measured by spectrometric assay relative to control
[2] = Inhibition of porcine kidney alpha-trehalase using p-nitrophenyl glycoside as substrate assessed as release of p-nitrophenol measured by spectrometric assay; set-up: species or system Sus scrofa
[3] = Inhibition of rat intestinal maltase using maltose as substrate assessed as release of D-glucose measured by spectrometric assay
Beta-glucuronidase = Beta-glucuronidase (Escherichia coli (strain K12), UniProt P05804); assay: Inhibition of Escherichia coli beta-glucuronidase using p-nitrophenyl glycoside as substrate assessed as release of p-nitrophenol measured by spectrometric assay
[4] = target: Beta-glucuronidase (Escherichia coli (strain K12)) (UniProt P05804); assay: Inhibition of Escherichia coli beta-glucuronidase using p-nitrophenyl glycoside as substrate assessed as release of p-nitrophenol at 1000 uM measured by spectrometric assay relative to control
[5] = Inhibition of bovine liver beta-glucosidase using p-nitrophenyl glycoside as substrate assessed as release of p-nitrophenol measured by spectrometric assay; set-up: species or system Bos taurus
[6] = target: T1, Alpha-mannosidase (Canavalia ensiformis) (UniProt C0HJB3); assay: Inhibition of jack bean alpha-mannosidase using p-nitrophenyl glycoside as substrate assessed as release of p-nitrophenol at 1000 uM measured by spectrometric assay relative to control
T1 sequence (whole entry): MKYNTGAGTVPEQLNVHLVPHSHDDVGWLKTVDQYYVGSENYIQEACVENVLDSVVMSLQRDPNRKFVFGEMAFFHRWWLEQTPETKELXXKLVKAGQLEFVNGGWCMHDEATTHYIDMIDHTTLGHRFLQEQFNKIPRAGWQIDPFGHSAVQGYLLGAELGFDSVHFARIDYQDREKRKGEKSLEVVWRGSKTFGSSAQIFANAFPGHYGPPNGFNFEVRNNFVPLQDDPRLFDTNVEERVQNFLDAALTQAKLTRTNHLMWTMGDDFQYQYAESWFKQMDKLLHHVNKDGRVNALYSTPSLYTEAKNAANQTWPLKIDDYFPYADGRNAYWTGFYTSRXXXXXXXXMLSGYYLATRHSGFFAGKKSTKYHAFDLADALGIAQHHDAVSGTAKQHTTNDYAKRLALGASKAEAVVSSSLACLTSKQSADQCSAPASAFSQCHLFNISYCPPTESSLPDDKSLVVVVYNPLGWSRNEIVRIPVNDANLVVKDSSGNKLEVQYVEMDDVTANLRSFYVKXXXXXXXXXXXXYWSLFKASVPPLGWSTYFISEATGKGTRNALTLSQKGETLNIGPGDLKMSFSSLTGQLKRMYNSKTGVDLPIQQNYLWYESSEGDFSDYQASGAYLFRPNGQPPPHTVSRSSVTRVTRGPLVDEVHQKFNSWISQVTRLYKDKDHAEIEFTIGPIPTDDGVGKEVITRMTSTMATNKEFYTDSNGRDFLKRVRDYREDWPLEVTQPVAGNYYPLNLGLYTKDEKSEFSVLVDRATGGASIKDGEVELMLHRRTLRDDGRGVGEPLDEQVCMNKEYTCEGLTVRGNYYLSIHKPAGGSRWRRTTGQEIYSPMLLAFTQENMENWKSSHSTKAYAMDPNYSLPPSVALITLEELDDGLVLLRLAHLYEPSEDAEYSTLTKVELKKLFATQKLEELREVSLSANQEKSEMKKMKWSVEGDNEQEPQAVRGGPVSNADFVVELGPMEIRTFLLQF

[7] = Inhibition of bovine liver beta-galactosidase using p-nitrophenyl glycoside as substrate assessed as release of p-nitrophenol measured by spectrometric assay; type: tissue-based, Bos taurus
[8] = target: T2, Tissue alpha-L-fucosidase (Bos taurus) (UniProt Q2KIM0); assay: Inhibition of bovine kidney alpha-L-fucosidase using p-nitrophenyl glycoside as substrate assessed as release of p-nitrophenol at 1000 uM measured by spectrometric assay relative to control; type: tissue-based
T2 sequence (whole entry): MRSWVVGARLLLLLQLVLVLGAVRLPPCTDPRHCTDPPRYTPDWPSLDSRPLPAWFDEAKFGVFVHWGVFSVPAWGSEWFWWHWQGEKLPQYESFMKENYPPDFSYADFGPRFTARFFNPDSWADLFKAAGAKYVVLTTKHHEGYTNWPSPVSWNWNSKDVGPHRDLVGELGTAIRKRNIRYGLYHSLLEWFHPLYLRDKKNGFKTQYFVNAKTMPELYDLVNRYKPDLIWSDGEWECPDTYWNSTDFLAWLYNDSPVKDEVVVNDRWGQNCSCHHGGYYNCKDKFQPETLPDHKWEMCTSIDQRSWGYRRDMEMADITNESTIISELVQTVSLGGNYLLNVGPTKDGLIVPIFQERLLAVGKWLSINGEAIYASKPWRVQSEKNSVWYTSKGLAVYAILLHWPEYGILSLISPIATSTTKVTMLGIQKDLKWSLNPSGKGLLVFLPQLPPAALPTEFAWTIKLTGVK

Bos taurus [9] = species on record: Bos taurus; assay: Inhibition of bovine liver beta-glucosidase using p-nitrophenyl glycoside as substrate assessed as release of p-nitrophenol at 1000 uM measured by spectrometric assay relative to control; type: tissue-based
[10] = Inhibition of Penicillium decumbens alpha-L-rhamnosidase using p-nitrophenyl glycoside as substrate assessed as release of p-nitrophenol measured by spectrometric assay
Bos taurus [11] = species on record: Bos taurus; assay: Inhibition of bovine liver beta-galactosidase using p-nitrophenyl glycoside as substrate assessed as release of p-nitrophenol at 1000 uM measured by spectrometric assay relative to control
Helix pomatia = assay: Inhibition of snail beta-mannosidase using p-nitrophenyl glycoside as substrate assessed as release of p-nitrophenol at 1000 uM measured by spectrometric assay relative to control
Sus scrofa = species on record: Sus scrofa; assay: Inhibition of porcine kidney alpha-trehalase using p-nitrophenyl glycoside as substrate assessed as release of p-nitrophenol at 1000 uM measured by spectrometric assay relative to control
[12] = Inhibition of Aspergillus niger amyloglucosidase using p-nitrophenyl glycoside as substrate assessed as release of p-nitrophenol measured by spectrometric assay
Aspergillus niger = assay: Inhibition of Aspergillus niger amyloglucosidase using p-nitrophenyl glycoside as substrate assessed as release of p-nitrophenol at 1000 uM measured by spectrometric assay relative to control
[13] = target: T3, Tissue alpha-L-fucosidase (Bos taurus, UniProt Q2KIM0); assay: Inhibition of bovine kidney alpha-L-fucosidase using p-nitrophenyl glycoside as substrate assessed as release of p-nitrophenol measured by spectrometric assay
T3 sequence (Q2KIM0 whole entry): T2 sequence (whole entry)

Rattus norvegicus = species on record: Rattus norvegicus; assay: Inhibition of rat intestinal maltase using maltose as substrate assessed as release of D-glucose at 1000 uM measured by spectrometric assay
[14] = Inhibition of almond beta-glucosidase using p-nitrophenyl glycoside as substrate assessed as release of p-nitrophenol measured by spectrometric assay; set-up: species or system Prunus dulcis
[15] = target: Alpha-galactosidase (Coffea arabica) (UniProt Q42656); assay: Inhibition of coffee beans alpha-galactosidase using p-nitrophenyl glycoside as substrate assessed as release of p-nitrophenol at 1000 uM measured by spectrometric assay relative to control
Alpha-galactosidase = Alpha-galactosidase (Coffea arabica, UniProt Q42656); assay: Inhibition of coffee beans alpha-galactosidase using p-nitrophenyl glycoside as substrate assessed as release of p-nitrophenol measured by spectrometric assay
[16] = target: T4, Sucrase-isomaltase, intestinal (Rattus norvegicus, UniProt P23739); assay: Inhibition of rat intestinal isomaltase using p-nitrophenyl glycoside as substrate assessed as release of p-nitrophenol measured by spectrometric assay
[17] = target: T4, Sucrase-isomaltase, intestinal; assay: Inhibition of rat intestinal sucrase using p-nitrophenyl glycoside as substrate assessed as release of p-nitrophenol measured by spectrometric assay
Penicillium decumbens = assay: Inhibition of Penicillium decumbens alpha-L-rhamnosidase using p-nitrophenyl glycoside as substrate assessed as release of p-nitrophenol at 1000 uM measured by spectrometric assay relative to control
[18] = Inhibition of jack bean alpha-mannosidase using p-nitrophenyl glycoside as substrate assessed as release of p-nitrophenol measured by spectrometric assay; set-up: species or system Canavalia ensiformis
[19] = Inhibition of rice alpha-glucosidase using p-nitrophenyl glycoside as substrate assessed as release of p-nitrophenol measured by spectrometric assay; set-up: species or system Oryza sativa; conditions: read-out: IC50

Alpha-galactosidase (Coffea arabica), sequence (Q42656 16-378 limits assumed): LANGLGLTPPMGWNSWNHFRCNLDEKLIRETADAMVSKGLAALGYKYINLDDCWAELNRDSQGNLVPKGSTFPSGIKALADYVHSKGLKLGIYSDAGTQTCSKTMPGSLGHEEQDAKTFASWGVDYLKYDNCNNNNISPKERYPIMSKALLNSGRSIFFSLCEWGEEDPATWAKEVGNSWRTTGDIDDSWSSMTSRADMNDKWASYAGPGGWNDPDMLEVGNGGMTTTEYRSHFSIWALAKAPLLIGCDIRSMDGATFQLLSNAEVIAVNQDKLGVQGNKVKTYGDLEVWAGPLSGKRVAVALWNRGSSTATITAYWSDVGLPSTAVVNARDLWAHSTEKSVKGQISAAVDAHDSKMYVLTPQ
Alpha-galactosidase, sequence (Q42656 whole entry): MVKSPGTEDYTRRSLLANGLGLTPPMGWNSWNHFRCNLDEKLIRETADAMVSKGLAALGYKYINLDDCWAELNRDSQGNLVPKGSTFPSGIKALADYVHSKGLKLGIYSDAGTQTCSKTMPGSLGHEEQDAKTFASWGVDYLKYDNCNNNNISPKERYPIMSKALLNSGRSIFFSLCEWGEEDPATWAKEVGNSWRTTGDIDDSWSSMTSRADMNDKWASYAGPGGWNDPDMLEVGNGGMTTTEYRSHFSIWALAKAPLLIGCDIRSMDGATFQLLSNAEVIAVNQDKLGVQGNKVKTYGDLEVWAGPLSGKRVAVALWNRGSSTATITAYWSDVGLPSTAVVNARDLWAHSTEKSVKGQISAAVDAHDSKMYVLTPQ
T4 sequence (P23739 1-1013 limits assumed): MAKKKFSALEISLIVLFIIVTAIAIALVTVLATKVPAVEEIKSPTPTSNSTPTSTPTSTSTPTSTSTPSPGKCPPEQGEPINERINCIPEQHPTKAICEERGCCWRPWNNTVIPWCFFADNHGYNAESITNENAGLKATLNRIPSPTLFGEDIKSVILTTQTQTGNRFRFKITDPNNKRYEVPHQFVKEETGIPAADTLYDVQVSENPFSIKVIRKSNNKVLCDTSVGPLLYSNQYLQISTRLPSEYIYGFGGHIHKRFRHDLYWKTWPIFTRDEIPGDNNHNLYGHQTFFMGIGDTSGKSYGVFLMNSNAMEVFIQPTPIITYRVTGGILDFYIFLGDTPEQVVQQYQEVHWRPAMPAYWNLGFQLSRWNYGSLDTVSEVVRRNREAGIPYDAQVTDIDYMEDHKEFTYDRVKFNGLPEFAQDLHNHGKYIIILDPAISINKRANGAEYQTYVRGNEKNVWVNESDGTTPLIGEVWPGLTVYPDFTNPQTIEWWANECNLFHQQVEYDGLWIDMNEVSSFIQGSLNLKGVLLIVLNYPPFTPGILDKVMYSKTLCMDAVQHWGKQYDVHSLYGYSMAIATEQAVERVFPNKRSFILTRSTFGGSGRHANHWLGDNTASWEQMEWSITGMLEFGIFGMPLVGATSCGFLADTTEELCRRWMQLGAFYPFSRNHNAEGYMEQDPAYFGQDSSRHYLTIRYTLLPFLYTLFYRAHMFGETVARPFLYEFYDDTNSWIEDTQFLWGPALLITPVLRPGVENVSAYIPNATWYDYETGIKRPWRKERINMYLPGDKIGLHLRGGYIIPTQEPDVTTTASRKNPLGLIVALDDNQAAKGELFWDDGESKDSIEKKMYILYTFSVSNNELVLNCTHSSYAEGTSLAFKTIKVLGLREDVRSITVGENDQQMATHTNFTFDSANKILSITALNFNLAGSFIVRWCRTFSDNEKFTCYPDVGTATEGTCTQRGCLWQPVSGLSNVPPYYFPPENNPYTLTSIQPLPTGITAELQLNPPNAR
T4 sequence (P23739 1014-1841 limits assumed): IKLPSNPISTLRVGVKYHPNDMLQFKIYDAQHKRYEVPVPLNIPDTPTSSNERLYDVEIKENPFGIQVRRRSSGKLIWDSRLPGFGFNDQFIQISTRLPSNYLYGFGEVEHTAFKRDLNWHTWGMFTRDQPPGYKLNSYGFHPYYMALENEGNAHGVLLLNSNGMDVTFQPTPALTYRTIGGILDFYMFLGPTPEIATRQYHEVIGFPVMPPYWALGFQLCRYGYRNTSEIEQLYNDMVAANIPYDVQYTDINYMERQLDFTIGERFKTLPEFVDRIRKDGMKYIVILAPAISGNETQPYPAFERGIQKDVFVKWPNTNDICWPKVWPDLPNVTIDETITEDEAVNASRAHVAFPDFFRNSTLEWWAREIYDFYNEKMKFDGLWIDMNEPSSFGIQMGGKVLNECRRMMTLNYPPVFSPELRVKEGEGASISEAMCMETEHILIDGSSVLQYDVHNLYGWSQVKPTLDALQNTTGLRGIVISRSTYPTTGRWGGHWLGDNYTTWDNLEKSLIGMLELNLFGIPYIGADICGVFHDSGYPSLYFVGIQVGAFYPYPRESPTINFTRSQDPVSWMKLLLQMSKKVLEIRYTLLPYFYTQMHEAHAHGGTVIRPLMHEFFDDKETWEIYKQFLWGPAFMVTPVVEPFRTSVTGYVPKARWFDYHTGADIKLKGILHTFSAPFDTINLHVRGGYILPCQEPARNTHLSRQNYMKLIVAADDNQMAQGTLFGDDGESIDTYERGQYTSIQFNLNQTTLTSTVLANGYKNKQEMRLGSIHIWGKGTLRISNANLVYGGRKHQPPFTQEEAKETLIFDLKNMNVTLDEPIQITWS
Beta-glucuronidase (Escherichia coli (strain K12)), sequence (P05804 whole entry, looked up): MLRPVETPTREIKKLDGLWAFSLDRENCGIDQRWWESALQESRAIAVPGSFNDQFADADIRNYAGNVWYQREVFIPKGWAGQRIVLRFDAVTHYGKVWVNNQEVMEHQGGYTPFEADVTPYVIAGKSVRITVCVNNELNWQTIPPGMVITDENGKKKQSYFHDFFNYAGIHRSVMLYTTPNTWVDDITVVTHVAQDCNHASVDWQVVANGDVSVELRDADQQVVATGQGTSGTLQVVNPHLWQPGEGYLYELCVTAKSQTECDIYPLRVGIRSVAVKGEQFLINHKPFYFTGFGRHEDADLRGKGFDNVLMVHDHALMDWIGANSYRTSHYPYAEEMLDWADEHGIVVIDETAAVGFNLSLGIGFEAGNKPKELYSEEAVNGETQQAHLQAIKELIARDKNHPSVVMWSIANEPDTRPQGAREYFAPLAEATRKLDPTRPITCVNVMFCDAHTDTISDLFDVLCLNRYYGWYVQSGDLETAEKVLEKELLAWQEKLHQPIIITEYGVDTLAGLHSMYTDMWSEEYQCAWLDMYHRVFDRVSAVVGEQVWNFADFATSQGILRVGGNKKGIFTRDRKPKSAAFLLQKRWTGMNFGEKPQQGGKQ
Beta-glucuronidase, sequence (P05804 whole entry): as the sequence (P05804 whole entry, looked up) above

In the case of CCCCC[C@@]1(CO)NC[C@H](O)[C@@H](O)[C@@H]1O.Cl, the IC50 [1] was “Not Active”, the inhibition (Prunus dulcis) was 4.4% and the IC50 [2] was “Not Active”. The pIC50 [3] was 3.81, the IC50 (Beta-glucuronidase) was “Not Active” and the inhibition [4] was 3.9%. The IC50 [5] was “Not Active”, the inhibition [6] was 1.2% and the IC50 [7] was “Not Active”. For the same compound, the inhibition [8] was 0%, the inhibition (Bos taurus [9]) was 9.2% and the IC50 [10] was “Not Active”. The inhibition (Bos taurus [11]) was 18.7%, the inhibition (Helix pomatia) was 4% and the inhibition (Sus scrofa) was 5.3%. For the same compound, the IC50 [12] was “Not Active”, the inhibition (Aspergillus niger) was 0% and the IC50 [13] was “Not Active”. For the same compound, the inhibition (Rattus norvegicus) was 15.1%, the IC50 [14] was “Not Active” and the inhibition [15] was 1.7%. For the same compound, the IC50 (Alpha-galactosidase) was “Not Active”, the IC50 [16] was “Not Active” and the IC50 [17] was “Not Active”. For the same compound, the inhibition (Penicillium decumbens) was 0%, the IC50 [18] was “Not Active” and the pIC50 [19] was 4.32.

For CCCCCCCC[C@@]1(CO)NC[C@H](O)[C@@H](O)[C@@H]1O.Cl, the IC50 [1] was “Not Active”, the inhibition (Prunus dulcis) was 14.8% and the IC50 [2] was “Not Active”. For the same compound, the pIC50 [3] was 3.65, the IC50 (Beta-glucuronidase) was “Not Active” and the inhibition [4] was 9.4%. For the same compound, the IC50 [5] was “Not Active”, the inhibition [6] was 9.6% and the IC50 [7] was “Not Active”. The inhibition [8] was 5.5%, the inhibition (Bos taurus [9]) was 19% and the IC50 [10] was “Not Active”. It also gave an inhibition (Bos taurus [11]) of 44.9%, an inhibition (Helix pomatia) of 4.9% and an inhibition (Sus scrofa) of 0%. The IC50 [12] was “Not Active”, the inhibition (Aspergillus niger) was 0.83% and the IC50 [13] was “Not Active”. The inhibition (Rattus norvegicus) was 23.2%, the IC50 [14] was “Not Active” and the inhibition [15] was 3.3%. For the same compound, the IC50 (Alpha-galactosidase) was “Not Active”, the IC50 [16] was “Not Active” and the IC50 [17] was “Not Active”. For the same compound, the inhibition (Penicillium decumbens) was 6%, the IC50 [18] was “Not Active” and the pIC50 [19] was 3.91.

For CCCCCC[C@@]1(CO)NC[C@H](O)[C@@H](O)[C@@H]1O.Cl, the IC50 [1] was “Not Active”, the inhibition (Prunus dulcis) was 2.5% and the IC50 [2] was “Not Active”. The pIC50 [3] was 3.57, the IC50 (Beta-glucuronidase) was “Not Active” and the inhibition [4] was 17.2%. For the same compound, the IC50 [5] was “Not Active”, the inhibition [6] was 6.7% and the IC50 [7] was “Not Active”. For the same compound, the inhibition [8] was 0.9%, the inhibition (Bos taurus [9]) was 15.7% and the IC50 [10] was “Not Active”. For the same compound, the inhibition (Bos taurus [11]) was 24.8%, the inhibition (Helix pomatia) was 2.8% and the inhibition (Sus scrofa) was 3.4%. The IC50 [12] was “Not Active”, the inhibition (Aspergillus niger) was 13.2% and the IC50 [13] was “Not Active”. For the same compound, the inhibition (Rattus norvegicus) was 11.6%, the IC50 [14] was “Not Active” and the inhibition [15] was 8%. For the same compound, the IC50 (Alpha-galactosidase) was “Not Active”, the IC50 [16] was “Not Active” and the IC50 [17] was “Not Active”. The inhibition (Penicillium decumbens) was 1.5%, the IC50 [18] was “Not Active” and the pIC50 [19] was 3.59.

In the case of CCC[C@@]1(CO)NC[C@H](O)[C@@H](O)[C@@H]1O.Cl, the IC50 [1] was “Not Active”, the inhibition (Prunus dulcis) was 19.5% and the IC50 [2] was “Not Active”. For the same compound, the pIC50 [3] was 3.87, the IC50 (Beta-glucuronidase) was “Not Active” and the inhibition [4] was 42.1%. For the same compound, the IC50 [5] was “Not Active”, the inhibition [6] was 13.8% and the IC50 [7] was “Not Active”. For the same compound, the inhibition [8] was 30.4%, the inhibition (Bos taurus [9]) was 9.1% and the IC50 [10] was “Not Active”. It also gave an inhibition (Bos taurus [11]) of 15.4%, an inhibition (Helix pomatia) of 4.9% and an inhibition (Sus scrofa) of 2.7%. The IC50 [12] was “Not Active”, the inhibition (Aspergillus niger) was 2.3% and the IC50 [13] was “Not Active”. For the same compound, the inhibition (Rattus norvegicus) was 0%, the IC50 [14] was “Not Active” and the inhibition [15] was 9.6%. The IC50 (Alpha-galactosidase) was “Not Active”, the IC50 [16] was “Not Active” and the pIC50 ([17]; read-out: IC50) was 4.03. The inhibition (Penicillium decumbens) was 2.7%, the IC50 [18] was “Not Active” and the pIC50 [19] was 4.09.
